In patent publication US5196512A (priority 1989, dated 1993):
Ends that are not written are not given here.

Columns and labels:
T cell clones = format: cell-based, human
[1] = system: Peripheral blood mononucleate cells (PBMC); format: cell-based, human
[2] = system: T cell clones specific for TT3; format: cell-based, human
[3] = system: T cell clones specific for TT3; format: cell-based, human; remark: listed apart in the source
[4] = system: C57BL/6, CBA and DBA/2 mice; conditions: mouse, in vivo
lymph node cells = format: cell-based, mouse
[5] = system: CBA, DBA/2 and C57BL/6 mice; conditions: CBA and DBA/2 mice; n between 3 and 40; cited from earlier work

With FNNFTVSFWLRVPK [TT200] the “recognition of the epitope by restricted T cell clones” value (T cell clones) was “recognised by all other DR and DP allele restricted clones”.

In the case of FNNFTVSFWLRVPKVSASHLE [TT3], the “in vitro response of PBMC of different HLA-typized individuals immunized with the tetanus toxin” value [1] is reported as “responded in vitro”, the “share of all the T cells specific for the tetanus toxoid (TT)” value [1] is reported as ≤ 5% and the “Independent restriction (class II MHC alleles able to present the peptide to at least one T cell clone)” value [2] is reported as “DR5 and DR9 and DR7 and DP2 and DP4 and DP? and DR5JVM/DP4”. For the same substance, the “proliferation of all the isolated clones in response to antigen presented by autologous APC cells” value [3] was “proliferated”, the “anti-TT3 antibody count after boosting” value [4] was “increased” and the “anti-TT3 antibody count with IFA compared with CFA” value [4] was “same values”. The “proliferative T cell response of lymph node cells” value (lymph node cells) was “good proliferative T cell response”.

In the case of “H-(Asn-Ala-Asn-Pro)n -OH (H-NANP-OH; also: repeated n times) [(NANP)n]”, the anti-CSP antibody response [5] is listed as “not able to induce”.

With tetanus toxoid [reference compound] the “proliferation of all the isolated clones in response to antigen presented by autologous APC cells” value [3] was “proliferated”.
